Measurements: US20130109682A1, “CYCLIC ETHER COMPOUNDS USEFUL AS KINASE INHIBITORS” (NOVARTIS AG, priority 2010, published 2013)

Key:
PIM3 = PIM3 (Homo sapiens, UniProt Q86V86); experiment: Pim 3 AlphaScreen assay (high ATP); format: biochemical; conditions: read-out: Pim3 IC50
Method: (§1) Pim1, Pim2, Pim3 AlphaScreen Assay Pim 1, Pim 2 & Pim 3 AlphaScreen assays using high ATP (11-125×ATP Km) were used to determine the biochemical activity of the inhibitors. The activity of Pim 1, Pim 2, & Pim 3 is measured using a homogeneous bead based system quantifying the amount of phosphorylated peptide substrate resulting from kinase-catalyzed phosphoryl transfer to a peptide substrate. Compounds to be tested are dissolved in 100% DMSO and directly distributed to a white 384-well plate at […] per well. To start the reaction, 5 μl of 100 nM Bad peptide (Biotin-AGAGRSRHSSYPAGT —OH) and ATP (concentrations described below) in assay buffer (50 mM Hepes, pH=7.5, 5 mM MgCl2, 0.05% BSA, 0.01% Tween-20, 1 mM DTT) is added to each well. This is followed by the addition of 5 μl/well of Pim 1, Pim 2 or Pim 3 kinase in assay buffer (concentrations described below). Final assay concentrations (described below) are in 2.5% DMSO. The reactions are performed for ˜2 hours, then stopped by the addition of 10 μl of 0.75 μg/ml anti-phospho Ser/Thr antibody (Cell Signaling), 10 μg/ml Protein A AlphaScreen beads (Perkin Elmer), and 10 μg/ml streptavidin coated AlphaScreen beads in stop/detection buffer (50 mM EDTA, 95 mM Tris, pH=7.5, 0.01% Tween-20). The stopped reactions are incubated overnight in the dark. The phosphorylated peptide is detected via an […] initiated chemiluminescence/fluorescence cascade using the Envision plate reader (Perkin Elmer).
(§2) IC50, the half maximal inhibitory concentration, represents the concentration of a test compound that is required for 50% inhibition of its target in vitro under the described assay conditions.

GSK3β = GSK3β (Homo sapiens, UniProt P49841); experiment: GSK3β ATP depletion assay; format: biochemical; conditions: ATP depletion assay; read-out: GSK3b IC50
In short: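 Human GSK3β (5 nM) preincubated 15 min with 10 μM biotinylated phospho-CREB peptide in pH 7.5 Tris buffer (15 mM MgCl2, 1 mM DTT, 0.1% BSA, 2.5% DMSO). Reaction started with 2 μM ATP and run to about 50% ATP depletion. Remaining ATP measured by KinaseGlo luminescence.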

PIM2 = PIM2 (Homo sapiens, UniProt Q9P1W9); experiment: Pim 2 AlphaScreen assay (high ATP); format: biochemical; conditions: read-out: Pim2 IC50
In short: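 This is a bead-based AlphaScreen run at high ATP (11-125× Km) with biotin-Bad peptide (100 nM in the substrate mix), in 50 mM Hepes pH 7.5, 5 mM MgCl2, 0.05% BSA, 0.01% Tween-20, 1 mM DTT and 2.5% DMSO final. After ~2 h the reaction was stopped with EDTA. Phospho-peptide was detected overnight with anti-phospho Ser/Thr antibody on Protein A and streptavidin beads, giving IC50.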

PIM1 = PIM1 (Homo sapiens, UniProt P11309); experiment: Pim 1 AlphaScreen assay (high ATP); format: biochemical; conditions: read-out: Pim1 IC50
Method: as §1, §2

[1] = system: KMS11 (human myeloma cell line); experiment: Cell proliferation assay (CellTiter-Glo), KMS11; format: cell-based; conditions: Homo sapiens, KMS-11; KMS11 cells, cell proliferation; read-out: KMS11-Luc EC50
In short: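 KMS11 cells in IMDM with 10% FBS and sodium pyruvate, seeded at 2000 cells/well on assay day. Compound added at 2× to equal volume of cells, incubated 3 days at 37° C. Viability read by CellTiter-Glo luminescence; EC50 derived.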

Chain of PIM2 (Q9P1W9 whole entry): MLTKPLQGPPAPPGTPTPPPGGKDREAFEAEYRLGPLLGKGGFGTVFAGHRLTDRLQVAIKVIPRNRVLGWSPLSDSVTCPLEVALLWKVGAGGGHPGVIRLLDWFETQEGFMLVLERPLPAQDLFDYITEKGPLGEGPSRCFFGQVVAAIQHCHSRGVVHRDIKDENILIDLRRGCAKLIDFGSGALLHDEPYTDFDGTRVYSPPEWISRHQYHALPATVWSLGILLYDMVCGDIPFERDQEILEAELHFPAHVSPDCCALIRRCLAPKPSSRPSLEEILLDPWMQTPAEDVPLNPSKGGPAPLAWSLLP
Chain of GSK3β (P49841 whole entry, species assumed): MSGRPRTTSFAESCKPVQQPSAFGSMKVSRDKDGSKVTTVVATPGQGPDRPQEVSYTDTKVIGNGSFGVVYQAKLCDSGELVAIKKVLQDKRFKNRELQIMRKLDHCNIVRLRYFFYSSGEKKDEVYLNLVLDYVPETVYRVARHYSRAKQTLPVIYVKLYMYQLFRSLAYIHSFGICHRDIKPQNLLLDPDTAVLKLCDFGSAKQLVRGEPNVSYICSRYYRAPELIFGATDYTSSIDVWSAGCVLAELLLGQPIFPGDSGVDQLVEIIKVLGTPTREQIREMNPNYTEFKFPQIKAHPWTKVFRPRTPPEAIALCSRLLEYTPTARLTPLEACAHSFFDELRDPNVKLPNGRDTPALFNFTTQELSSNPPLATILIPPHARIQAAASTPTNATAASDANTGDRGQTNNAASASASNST
Chain of PIM1 (P11309 whole entry): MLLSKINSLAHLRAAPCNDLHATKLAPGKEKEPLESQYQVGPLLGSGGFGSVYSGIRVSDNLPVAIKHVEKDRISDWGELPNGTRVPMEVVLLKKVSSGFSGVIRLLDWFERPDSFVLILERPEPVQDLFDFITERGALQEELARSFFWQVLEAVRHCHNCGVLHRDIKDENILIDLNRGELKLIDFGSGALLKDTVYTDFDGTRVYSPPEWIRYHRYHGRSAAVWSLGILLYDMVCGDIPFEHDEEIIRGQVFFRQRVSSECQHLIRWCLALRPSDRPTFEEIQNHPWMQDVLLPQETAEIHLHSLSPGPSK

| SMILES | IC50 (PIM3) [nM] | IC50 (GSK3β) [nM] | IC50 (PIM2) [nM] | IC50 (PIM1) [nM] | EC50 [1] [nM] |
| --- | --- | --- | --- | --- | --- |
| Cc1cc(F)c(-c2nc(C(=O)Nc3cnccc3[C@@H]3C[C@@H](N)CC(C)(C)O3)ccc2F)c(F)c1 [Example 313, N-(4-((2S,4R)-4-amino-6,6-dimethyltetrahydro-2H-pyran-2-yl)pyridin-3-yl)-6-(2,6-difluoro-4-methylphenyl)-5-fluoropicolinamide] | 1.4 | 128 | 8.6 | 0.06 | 360 |
| CC(C)[C@@H]1C[C@H](N)CC(c2ccncc2NC(=O)c2ccnc(-c3c(F)cccc3F)n2)O1 (stereo in doubt) [Example 328, N-(4-((2S,4S,6S)-4-amino-6-isopropyltetrahydro-2H-pyran-2-yl)pyridin-3-yl)-2-(2,6-difluorophenyl)pyrimidine-4-carboxamide] | 172 | – | 165 | 7 | 540 |
| CC[C@@H]1O[C@H](c2ccncc2NC(=O)c2ccc(F)c(-c3c(F)cccc3F)n2)C[C@H](N)[C@H]1O [Example 332, N-(4-((2S,4S,5R,6S)-4-amino-6-ethyl-5-hydroxytetrahydro-2H-pyran-2-yl)pyridin-3-yl)-6-(2,6-difluorophenyl)-5-fluoropicolinamide] | 157 | – | 310 | 6.3 | 4200 |
| CC(C)[C@H]1O[C@@H](c2ccncc2NC(=O)c2ccc(F)c(-c3c(F)ccc(C#N)c3F)n2)C[C@@H](N)[C@@H]1O [Example 329, N-(4-((2R,4R,5S,6R)-4-amino-5-hydroxy-6-isopropyltetrahydro-2H-pyran-2-yl)pyridin-3-yl)-6-(3-cyano-2,6-difluorophenyl)-5-fluoropicolinamide] | 14.7 | – | 14.7 | 0.7 | 190 |
| CC[C@H]1O[C@@H](c2ccncc2NC(=O)c2ccc(F)c(-c3c(F)cccc3F)n2)C[C@@H](N)[C@@H]1O [Example 331, N-(4-((2R,4R,5S,6R)-4-amino-6-ethyl-5-hydroxytetrahydro-2H-pyran-2-yl)pyridin-3-yl)-6-(2,6-difluorophenyl)-5-fluoropicolinamide] | 6 | – | 11.8 | 0.2 | 70 |
| CC(C)[C@H]1O[C@@H](c2ccncc2NC(=O)c2ccc(F)c(-c3ccc(C#N)cc3F)n2)C[C@@H](N)[C@@H]1O [Example 330, N-(4-((2R,4R,5S,6R)-4-amino-5-hydroxy-6-isopropyltetrahydro-2H-pyran-2-yl)pyridin-3-yl)-6-(4-cyano-2-fluorophenyl)-5-fluoropicolinamide] | 232 | – | 229 | 2 | 2430 |
| C[C@]1(O)[C@H](N)C[C@H](c2ccncc2NC(=O)c2ccc(F)c(-c3c(F)cccc3F)n2)O[C@@H]1C1CC1 [Example 256, N-(4-((2R,4R,5S,6R)-4-amino-6-cyclopropyl-5-hydroxy-5-methyltetrahydro-2H-pyran-2-yl)pyridin-3-yl)-6-(2,6-difluorophenyl)-5-fluoropicolinamide] | 1.7 | 4620 | 6.1 | 0.17 | – |
| C[C@@]1(O)[C@@H](O)C[C@@H](c2ccncc2NC(=O)c2ccc(F)c(-c3c(F)cccc3F)n2)O[C@H]1C1CC1 [Example 248, N-(4-((2S,4S,5R,6S)-6-cyclopropyl-4,5-dihydroxy-5-methyltetrahydro-2H-pyran-2-yl)pyridin-3-yl)-6-(2,6-difluorophenyl)-5-fluoropicolinamide] | 2270 | 1970 | 9280 | 92 | – |
| C[C@]1(O)[C@H](N)C[C@H](c2ccncc2NC(=O)c2csc(-c3c(F)cccc3F)n2)O[C@@H]1C1CC1 [Example 263, N-(4-((2R,4R,5S,6R)-4-amino-6-cyclopropyl-5-hydroxy-5-methyltetrahydro-2H-pyran-2-yl)pyridin-3-yl)-2-(2,6-difluorophenyl)thiazole-4-carboxamide] | 23.1 | 334 | 72.7 | 1.26 | – |
| CC[C@H]1O[C@@H](c2ccncc2NC(=O)c2ccc(F)c(-c3c(F)cccc3F)n2)C[C@@H](N)[C@]1(C)O (stereo in doubt) [Example 275, N-(4-((2R,4R,5S,6R)-4-amino-6-ethyl-5-hydroxy-5-methyltetrahydro-2H-pyran-2-yl)pyridin-3-yl)-6-(2,6-difluorophenyl)-5-fluoropicolinamide] | 51.9 | 16600 | 234 | 2.62 | – |
| C[C@]1(O)[C@H](N)C[C@H](c2ccncc2NC(=O)c2nc(-c3c(F)cccc3F)c(F)cc2N)O[C@@H]1C1CC1 [Example 261, 3-amino-N-(4-((2R,4R,5S,6R)-4-amino-6-cyclopropyl-5-hydroxy-5-methyltetrahydro-2H-pyran-2-yl)pyridin-3-yl)-6-(2,6-difluorophenyl)-5-fluoropicolinamide] | 1.2 | 5520 | 6.1 | 0.11 | – |
| CC(C)(C)[C@H]1O[C@@H](c2ccncc2NC(=O)c2nc(-c3c(F)cccc3F)ncc2N)C[C@@H](N)[C@@H]1O [Example 260, 5-amino-N-(4-((2R,4R,5S,6R)-4-amino-6-tert-butyl-5-hydroxytetrahydro-2H-pyran-2-yl)pyridin-3-yl)-2-(2,6-difluorophenyl)pyrimidine-4-carboxamide] | 3.6 | 1040 | 6 | 0.34 | – |
| C[C@]1(O)[C@H](N)C[C@H](c2ccncc2NC(=O)c2nc(-c3c(F)cccc3F)ncc2N)O[C@@H]1C1CC1 [Example 262, 5-amino-N-(4-((2R,4R,5S,6R)-4-amino-6-cyclopropyl-5-hydroxy-5-methyltetrahydro-2H-pyran-2-yl)pyridin-3-yl)-2-(2,6-difluorophenyl)pyrimidine-4-carboxamide] | 18.1 | 2020 | 18.2 | 2.15 | – |
| C[C@]1(O)[C@H](N)C[C@H](c2ccncc2NC(=O)c2ccc(F)c(-c3c(F)cccc3F)n2)OC12CC2 [Example 267, N-(4-((5R,7R,8S)-7-amino-8-hydroxy-8-methyl-4-oxaspiro[2.5]octan-5-yl)pyridin-3-yl)-6-(2,6-difluorophenyl)-5-fluoropicolinamide] | 29.7 | 6930 | 213 | 2.52 | – |
| N[C@@H]1C[C@H](c2ccncc2NC(=O)c2ccc(F)c(-c3c(F)cccc3F)n2)O[C@H](C2CC2)[C@H]1O [Example 235, N-(4-((2R,4R,5S,6R)-4-amino-6-cyclopropyl-5-hydroxytetrahydro-2H-pyran-2-yl)pyridin-3-yl)-6-(2,6-difluorophenyl)-5-fluoropicolinamide] | 7.6 | 7420 | 9.9 | 0.35 | – |
| CC[C@]1(O)[C@H](N)C[C@H](c2ccncc2NC(=O)c2nc(-c3c(F)cccc3F)ncc2N)O[C@@H]1C [Example 239, 5-amino-N-(4-((2R,4R,5S,6R)-4-amino-5-ethyl-5-hydroxy-6-methyltetrahydro-2H-pyran-2-yl)pyridin-3-yl)-2-(2,6-difluorophenyl)pyrimidine-4-carboxamide] | 8.4 | 352 | 24 | 0.92 | – |
| C[C@@]1(O)[C@@H](O)C[C@@H](c2ccncc2NC(=O)c2nc(-c3c(F)cccc3F)ncc2N)O[C@H]1C1CC1 [Example 249, 5-amino-N-(4-((2S,4S,5R,6S)-6-cyclopropyl-4,5-dihydroxy-5-methyltetrahydro-2H-pyran-2-yl)pyridin-3-yl)-2-(2,6-difluorophenyl)pyrimidine-4-carboxamide] | 20900 | 6020 | > 25000 | 989 | – |
